Assay results published in patent US20170319563A1, “STEROID-FREE DISEASE MANAGEMENT” (Asana BioSciences, LLC, priority 2014, published 2017).
Like-named read-outs stand apart in the source and are kept apart here.

Columns and labels:
cortisol synthesis = test: Cell-based functional assay: cortisol synthesis inhibition in H295R cells; set-up: species or system human
Procedure: Cell-Based Functional Assay: Cortisol Synthesis Inhibition
The H295R cell based assay was used to examine effects on cortisol synthesis. The DetectX® Cortisol Immunoassay kit (Arbor Assays, Cat. No. K003-H1) measures Cortisol present in extracted dried fecal samples, serum, plasma and tissue culture media samples.
(§1) Standard Preparation • 1. Label seven test tubes as #1 through #7. • 2. Pipet 450 μL of Assay Buffer into tube #1 and 250 μL into tubes #2 to #7. • 3. The Cortisol stock solution contains an organic solvent. Pre-rinse the pipet tip several times to ensure accurate delivery. • 4. Carefully add 50 μL of the Cortisol stock solution to tube #1 and vortex completely. • 5. Take 250 μL of the Cortisol solution in tube #1 and add it to tube #2 and vortex completely. • 6. Repeat the serial dilutions for tubes #3 through #7. • 7. The concentration of Cortisol in tubes 1 through 7 will be 5,000, 2,500, 1,250, 625, 312.5, 156.25 and 78.125 pg/mL.
(§2) Assay Protocol • 1. Subculture H295R (Human Adreno Cortical Carcinoma cell line ATCC# CRL-2128) cells and seed 60,000 cells per well in a poly-d lysine plate and leave it overnight at 37° C. • 2. Add 50 μl of serially diluted compounds from a 5×plate. • 3. Incubate overnight at 37° C. (˜16 hours). • 4. Collect media/cell culture supernatant and dilute appropriately for Cortisol estimation (1:10 diluted with assay buffer). • 5. Pipet 50 μL of samples or standards into wells in the plate. • 6. Pipet 75 μL of Assay Buffer into the non-specific binding (NSB) wells. • 7. Pipet 50 μL of Assay Buffer into wells to act as maximum binding wells (B0 or 0 pg/mL). • 8. Add 25 μL of the DetectX® Cortisol Conjugate to each well using a repeater pipet. • 9. Add 25 μL of the DetectX® Cortisol Antibody to each well, except the NSB wells, using a repeater pipet. • 10. Gently tap the sides of the plate to ensure adequate mixing of the reagents. Cover the plate with the plate sealer and shake at room temperature for 1 hour. If the plate is not shaken signals bound will be approximately 45% lower. • 11. Aspirate the plate and wash each well 4 times with 300 μL wash buffer. Tap the plate dry on clean absorbent towels. • 12. Add 100 μL of the TMB Substrate to each well, using a repeater pipet. • 13. Incubate the plate at room temperature for 30 minutes without shaking. • 14. Add 50 μL of the Stop Solution to each well, using a repeater or a multichannel pipet. • 15. Read the optical density generated from each well in a plate reader capable of reading at 450 nm. • 16. Use the plate reader's built-in 4PLC software capabilities to calculate Cortisol concentration for each sample.

corticosterone synthesis = test: Cell-based functional assay: corticosterone synthesis inhibition in H295R cells; set-up: species or system human
Procedure: Cell-Based Functional Assay: Corticosterone Synthesis Inhibition
The H295R cell based assay was used to examine effects on corticosterone synthesis. The DetectX® Corticosterone Immunoassay kit (Arbor Assays, Cat. No. K014-H1) measures Corticosterone present in extracted dried fecal samples, serum, plasma and tissue culture media samples.
as §1, with “corticosterone” for “Cortisol”
as §2, with “for Corticosterone” for “for Cortisol”, “(1:10 Diluted” for “(1:10 diluted”, “wells (Bo” for “wells (B0”, “DetectX® Corticosterone” for “DetectX® Cortisol”, “calculate Corticosterone” for “calculate Cortisol”

testosterone synthesis = test: Cell-based functional assay: testosterone synthesis inhibition in H295R cells; set-up: species or system human; settings: for EC50: Homo sapiens, NCI-H295R, H295R cells; for IC50 / testosterone/cortisol synthesis inhibition ratio: human adrenal NCI-H295R cells
Procedure: Cell-Based Functional Assay: Testosterone Synthesis Inhibition
To understand how the inhibition of CYP17 lyase impacts testosterone synthesis, testosterone levels were measured in H295R adrenocortical carcinoma cells. This assay was conducted as described previously as Example 86 in WO 2013/049559 (published in the US as United States Patent Application Publication No. US 2013/0085148).

CYP17 C17,20-lyase [1] = biological target: T1, CYP17 C17,20-lyase (Homo sapiens, UniProt P05093); test: Cell-based CYP17 C17,20-lyase assay in H295R cells
T1 construct: These cells have intact testosterone synthesis pathway; host or cells: NCI-H295R human adrenocortical carcinoma cells
T1 sequence (P05093 1-508): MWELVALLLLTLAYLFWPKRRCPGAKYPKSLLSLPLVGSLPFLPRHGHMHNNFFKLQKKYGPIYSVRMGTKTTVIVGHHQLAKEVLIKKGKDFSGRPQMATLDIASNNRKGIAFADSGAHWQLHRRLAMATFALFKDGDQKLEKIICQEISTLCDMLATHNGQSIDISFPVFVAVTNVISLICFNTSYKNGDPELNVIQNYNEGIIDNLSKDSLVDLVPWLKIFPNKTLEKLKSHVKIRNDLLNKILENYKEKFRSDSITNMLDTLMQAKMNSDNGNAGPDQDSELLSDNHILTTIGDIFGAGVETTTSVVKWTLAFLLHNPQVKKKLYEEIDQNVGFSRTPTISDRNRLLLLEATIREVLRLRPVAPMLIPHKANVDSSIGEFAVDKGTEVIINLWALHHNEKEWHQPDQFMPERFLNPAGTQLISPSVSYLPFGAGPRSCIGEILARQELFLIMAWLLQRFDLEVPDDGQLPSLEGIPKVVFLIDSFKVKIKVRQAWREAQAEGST
Procedure: Cell-Based CYP17 C17,20-Lyase Assay
To test the inhibitory effect of compounds on CYP17 C17,20-lyase activity in cells, human adrenocortical carcinoma H295R cells (ATCC) were used. These cells have intact testosterone synthesis pathway and are ideal to study the effect of compounds on various enzymes involved in this pathway. The cell-based CYP17 C17,20-Lyase assay was conducted as described previously as Example 85 in WO 2013/049559 (published in the US as United States Patent Application Publication No. US 2013/0085148).

male SD rats [2] = test: Prostate and seminal vesicle weights after 14 days repeat oral administration; format: in vivo
Procedure: The effect of ASN001 and its individual enantiomers on prostate and seminal vesicle weights was evaluated after 14 days repeat oral administration in male SD rats. ASN001 caused a dose-dependent reduction of the prostate and seminal vesicle weights.
(In a prior test using ASN001 at 30 mg/kg once a day (QD) PO×14 days, not made in comparison to either enantiomer, but using the same general protocol, the reduction in prostate and seminal vesicle weights was “about 50%” and “about 60%” respectively. See Example 88 of WO 2013/049559.)
(§3) General procedures for the in vitro and in vivo studies discussed above have been described previously in WO 2013/049559 (published in the US as United States Patent Application Publication No. US 2013/0085148; see e.g. Examples 84-88). The inhibitory effect of compounds on human CYP17 lyase activity in vitro in human testicular microsomes (CelsisIVT, US) was determined in a similar manner to the CYP17 lyase assay in rat testicular microsomes described previously as Example 84 in WO 2013/049559 (published in the US as United States Patent Application Publication No. US 2013/0085148), except that human testicular microsomes were used instead of rat testicular microsomes.

CYP17 C17,20-lyase [3] = biological target: T1, CYP17 C17,20-lyase; test: CYP17 lyase assay in human testicular microsomes; format: biochemical
Excerpt: ASN001 has one chiral center. The individual enantiomers of ASN001 are both potent and selective inhibitors of CYP17. […] Similar relative potency results for the racemate and enantiomers have also been obtained experimentally in rat testicular microsomes and human H295R adrenocortical carcinoma cells. In summary ASN001 and its individual enantiomers are all potent inhibitors of CYP17 activity and testosterone synthesis in biochemical and cellular functional assays.
as §3

[4] = Food effect and bioavailability in rats; format: in vivo, rat
Excerpt: Accordingly, the dosage forms, regimens and methods of administration described herein may be accomplished on humans in the fed or fasted state and with food or without. Thus, the methods described herein could include administration of a therapeutically effective amount of ASN001, as a substantially pure enantiomer, as a mixture or as a racemic mixture, which is “food indifferent” which means with or without food to a patient in a fed or fasted state. Examples include, without limitation, with food, to a patient who has consumed food in the last two hours, without food, and/or to a patient who has not eaten in the last two hours.

male SD rats [5] = settings: prior test, 30 mg/kg QD PO x 14 days; Example 88 of WO 2013/049559; cited from earlier work
[6] = Homo sapiens, NCI-H295R, H295R cells, read-out: cortisol synthesis inhibition IC50
[7] = human adrenal NCI-H295R cells, read-out: cortisol synthesis IC50
[8] = Homo sapiens, NCI-H295R, H295R cells, read-out: corticosterone synthesis inhibition IC50
[9] = human adrenal NCI-H295R cells, read-out: corticosterone synthesis IC50
[10] = H295R cells, average of multiple runs, read-out: CYP17 C17,20-lyase average IC50
[11] = human adrenal NCI-H295R cells, read-out: 17,20-Lyase IC50

IC50 (CYP17 C17,20-lyase [3]) | Structure (SMILES) | IC50 (cortisol synthesis; [6]) | IC50 (cortisol synthesis; [7]) | IC50 (corticosterone synthesis; [8]) | IC50 (corticosterone synthesis; [9]) | EC50 (testosterone synthesis) | IC50 (testosterone synthesis) | testosterone/cortisol synthesis inhibition ratio (testosterone synthesis) | IC50 (CYP17 C17,20-lyase [1]; [10]) | IC50 (CYP17 C17,20-lyase [1]; [11]) | reduction in prostate weight (male SD rats [2]; 10 mg/kg BID PO x 14 days) | reduction in seminal vesicle weight (male SD rats [2]; 10 mg/kg BID PO x 14 days) | also measured
– | C[C@]12CC[C@H](O)CC1=CC[C@@H]1[C@@H]2CC[C@]2(C)C(c3cccnc3)=CC[C@@H]12 [Abiraterone, abiraterone, reference compound] | 0.68 nM | < 1 nM | 65 nM | 65 nM | 5 nM | 5 nM | <0.2 | 2.8 nM | 3 nM | – | – | –
8 nM | CC(O)(c1ccncc1)c1cnc(-c2ccc(F)cc2)s1 (single isomer, unassigned; (-)) [(−)ASN001] | – | – | – | – | – | – | – | – | – | 30% | 31% | reduction in prostate weight (male SD rats [2]; 15 mg/kg QD PO x 14 days): 17%; reduction in seminal vesicle weight (male SD rats [2]; 15 mg/kg QD PO x 14 days): 27%
63 nM | CC(O)(c1ccncc1)c1cnc(-c2ccc(F)cc2)s1 (single isomer, unassigned; (+)) [(+)ASN001] | – | – | – | – | – | – | – | – | – | – | – | –
15 nM | CC(O)(c1ccncc1)c1cnc(-c2ccc(F)cc2)s1 (racemic) [ASN001, 1-(2-(4-fluorophenyl)thiazol-5-yl)-1-(pyridin-4-yl)ethanol] | 346 nM | 350 nM | 2800 nM | 2800 nM | 54 nM | 54 nM | 6.5 | 50 nM | 50 nM | 24% | 48% | bioavailability ([4]; rat and other non-clinical species): quite high; food effect ([4]; rats): does not exhibit a food effect; reduction in prostate weight (male SD rats [2]; 30 mg/kg QD PO x 14 days): 29%; reduction in seminal vesicle weight (male SD rats [2]; 30 mg/kg QD PO x 14 days): 43%; reduction in prostate weight (male SD rats [5]): about 50%; reduction in seminal vesicle weight (male SD rats [5]): about 60%; difference between C17,20-lyase inhibition and cortisol biosynthesis inhibition (CYP17 C17,20-lyase [1]; adrenal NCI-H295R cells): ~7 fold
